Assays:
[1] = target: T1, serotonin (5-HT) 2C receptor (Rattus norvegicus, UniProt P08909); details: anesthetized rats; cited from earlier work
T1 construct: increased genioglossus activity and reduced upper airway collapsibility in anesthetized rats; from tissue; host or cells: anesthetized rats (in vivo; hypoglossal motor nucleus / brainstem)
T1 sequence (P08909 33-460): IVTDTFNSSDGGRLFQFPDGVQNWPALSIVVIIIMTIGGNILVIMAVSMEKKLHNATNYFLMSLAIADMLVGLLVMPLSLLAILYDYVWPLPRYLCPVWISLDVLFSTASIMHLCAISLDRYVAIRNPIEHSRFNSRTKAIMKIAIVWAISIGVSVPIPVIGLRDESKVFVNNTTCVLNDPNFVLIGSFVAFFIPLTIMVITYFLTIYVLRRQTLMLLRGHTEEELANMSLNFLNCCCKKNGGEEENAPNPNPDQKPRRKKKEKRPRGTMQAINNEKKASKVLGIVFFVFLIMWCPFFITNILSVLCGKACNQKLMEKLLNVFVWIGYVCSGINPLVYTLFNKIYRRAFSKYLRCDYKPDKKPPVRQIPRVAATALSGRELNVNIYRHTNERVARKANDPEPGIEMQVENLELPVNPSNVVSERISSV

OSA patients = experiment: Crossover pilot trial, lorcaserin 15 mg or placebo before bedtime for one night; polysomnography with pneumotach and oronasal mask; assay type: in vivo, human; details: single patient, hypopneas present in both conditions
Description: In a crossover pilot trial including 6 OSA patients, the patients were administered in random order lorcaserin 15 mg or placebo before bedtime for one night.
Patients were outfitted with the usual polysomnography equipment plus a pneumotach and oronasal mask for accurate ventilation measurements. The effect of lorcaserin on several ventilatory parameters reflecting the upper airway collapsibility and muscle activity were measured using validated algorithms.

Row | Compound | genioglossus activity [1] | upper airway collapsibility [1] | ventilation during NREM sleep of a patient, lorcaserin night vs placebo (FIG. 2) (OSA patients)
1 | COc1cc(CC(C)N)c(OC)cc1I (stereo not drawn) [DOI, 2,5-dimethoxy-4-iodoaminophentamine] | increased | reduced | –
2 | C[C@H]1CNCCc2ccc(Cl)cc21 [lorcaserin, (1R)-8-chloro-1-methyl-2,3,4,5-tetrahydro-1H-3-benzazepine] | – | – | increased substantially
